The values below come from patent publication US8299048B2, “Hexahydrocyclopentyl[f]indazole sulfonamides and derivatives thereof as selective glucocorticoid receptor modulators” (Merck Sharp & Dohme Corp., priority 2008, dated 2012).

Read-outs that look alike come from different tables or passages of the source. A value given as a limit tells only on which side of the number the result lay.

The assay concerns the target T1, human GR (Homo sapiens, UniProt P04150).
T1 sequence (P04150 1-777): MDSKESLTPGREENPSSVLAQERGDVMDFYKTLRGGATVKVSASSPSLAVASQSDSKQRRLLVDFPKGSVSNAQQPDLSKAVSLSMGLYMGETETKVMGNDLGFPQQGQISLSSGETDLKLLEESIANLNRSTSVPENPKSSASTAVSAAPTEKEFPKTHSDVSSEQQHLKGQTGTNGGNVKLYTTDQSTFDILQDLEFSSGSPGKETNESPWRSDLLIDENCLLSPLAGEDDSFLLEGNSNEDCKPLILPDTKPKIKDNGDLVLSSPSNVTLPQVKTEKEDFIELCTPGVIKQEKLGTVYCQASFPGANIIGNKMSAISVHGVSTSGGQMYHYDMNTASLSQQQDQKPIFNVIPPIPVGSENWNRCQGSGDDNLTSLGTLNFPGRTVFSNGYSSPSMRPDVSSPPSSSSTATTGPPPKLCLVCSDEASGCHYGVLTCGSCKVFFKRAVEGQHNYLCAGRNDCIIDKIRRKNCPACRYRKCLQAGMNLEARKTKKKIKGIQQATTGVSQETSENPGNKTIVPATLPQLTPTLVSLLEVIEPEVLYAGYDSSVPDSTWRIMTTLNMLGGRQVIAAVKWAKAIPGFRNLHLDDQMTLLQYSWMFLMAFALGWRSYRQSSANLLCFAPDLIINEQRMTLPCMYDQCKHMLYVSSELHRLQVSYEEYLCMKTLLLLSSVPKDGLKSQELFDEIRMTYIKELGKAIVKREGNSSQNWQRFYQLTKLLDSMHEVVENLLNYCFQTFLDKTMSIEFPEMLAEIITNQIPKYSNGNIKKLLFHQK
The assay can be described thus: Transrepression Assay (GITAR), TNFα-β-lactamase reporter in U937 cells. The assay is classed as cell-based. On the set-up: U937 cells contain an endogenous glucocorticoid receptor (GR); endogenous in cells; host or cells: U937 cells stably transfected with the TNF-alpha promoter/beta-lactamase reporter. The settings on record: for GITAR > GRAMM % SEP: GITAR Emax minus GRAMMER Emax; for EC50: U937 cells, inflection point, read-out: Transrepression U937 Cells GITAR IP. In outline: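 Repression normalised to 100 nM dexamethasone (100%), measured with CCF2-AM β-lactamase substrate after 70–90 min at room temperature. Stably transfected U937 cells were exposed to compound 30–45 min, then to PMA (5 ng/ml final) plus LPS (100 ng/ml final) overnight (~18 hr), 37° C.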

[1] abbreviates: U-937, U937 cells, maximum activity, read-out: Transrepression U937 Cells GITAR Emax.
[2] abbreviates: U-937, activity repressed by 100 nM dexamethasone alone set as 100%, read-out: maximal activity in the transrepression (GITAR) assay.

With `C[C@]12Cc3cnn(-c4ccc(F)cc4)c3C=C1CC[C@@H]2CN(CC#N)S(=O)(=O)c1cc(F)cc(F)c1` [Example 44, N-(cyanomethyl)-3,5-difluoro-N-{[(4αR,5S)-1-(4-fluorophenyl)-4α-methyl-1,4,4α,5,6,7-hexahydrocyclopenta[f]indazol-5-yl]methyl}benzenesulfonamide], the “GITAR > GRAMM % SEP” value was 20.8% and the EC50 stood at 1050 nM. Also, under setting [1], the Emax amounted to 65.6%. The Emax under setting [2] was above 5%.

As for `C[C@]12Cc3cnn(-c4ccc(F)cc4)c3C=C1CC[C@@H]2CN(CC#N)S(=O)(=O)c1ccc(Oc2ccccn2)cc1` [Example 45, N-(cyanomethyl)-N-{[(4αR,5S)-1-(4-fluorophenyl)-4α-methyl-1,4,4α,5,6,7-hexahydrocyclopenta[f]indazol-5-yl]methyl}-4-(pyridin-2-yloxy)benzenesulfonamide], the “GITAR > GRAMM % SEP” value is recorded as 1.3% and the EC50 stood at 1390 nM. Also, the Emax under setting [1] is 12.8%. For the same compound, the Emax under setting [2] is above 5%.

As for `C[C@]12Cc3cnn(-c4ccc(F)cc4)c3C=C1CC[C@@H]2CN(CC#N)S(=O)(=O)c1ccc(F)cc1` [Example 46, N-(cyanomethyl)-4-fluoro-N-{[(4αR,5S)-1-(4-fluorophenyl)-4α-methyl-1,4,4α,5,6,7-hexahydrocyclopenta[f]indazol-5-yl]methyl}benzenesulfonamide], the “GITAR > GRAMM % SEP” value was found to be 2.1% and the EC50 was 187 nM. The Emax under setting [1] is 85.5%. Further, under setting [2], the Emax was above 5%.

Regarding `C[C@]12Cc3cnn(-c4ccc(F)cc4)c3C=C1CC[C@@H]2CN(CC#N)S(=O)(=O)c1cc(F)c(F)cc1F` [Example 47, N-(cyanomethyl)-2,4,5-trifluoro-N-{[(4αR,5S)-1-(4-fluorophenyl)-4α-methyl-1,4,4α,5,6,7-hexahydrocyclopenta[f]indazol-5-yl]methyl}benzenesulfonamide], the “GITAR > GRAMM % SEP” value turned out to be 15.7% and the EC50 stood at 895 nM. Moreover, the Emax under setting [1] was 74%. Further, the Emax under setting [2] was above 5%.

With `C[C@]12Cc3cnn(-c4ccc(F)cc4)c3C=C1CC[C@@H]2CN(CC#N)S(=O)(=O)Cc1ccccc1` [Example 48, N-(cyanomethyl)-N-{[(4αR,5S)-1-(4-fluorophenyl)-4α-methyl-1,4,4α,5,6,7-hexahydrocyclopenta[f]indazol-5-yl]methyl}-1-phenylmethanesulfonamide], the “GITAR > GRAMM % SEP” value is given as 15.7% and the EC50 stood at 175 nM. The Emax under setting [1] was determined as 24.5%. The Emax under setting [2] is above 5%.

As to `Cc1ccccc1S(=O)(=O)N(CC#N)C[C@H]1CCC2=Cc3c(cnn3-c3ccc(F)cc3)C[C@@]21C` [Example 49, N-(cyanomethyl)-N-{[(4αR,5S)-1-(4-fluorophenyl)-4α-methyl-1,4,4α,5,6,7-hexahydrocyclopenta[f]indazol-5-yl]methyl}-2-methylbenzenesulfonamide], the “GITAR > GRAMM % SEP” value was 8.9% and the EC50 was determined as 922 nM. For the same compound, the Emax under setting [1] stood at 23%. The Emax under setting [2] is above 5%.

Take `C[C@]12Cc3cnn(-c4ccc(F)cc4)c3C=C1CC[C@@H]2CN(CC#N)S(=O)(=O)c1ccccc1Cl` [Example 50, 2-chloro-N-(cyanomethyl)-N-{[(4αR,5S)-1-(4-fluorophenyl)-4α-methyl-1,4,4α,5,6,7-hexahydrocyclopenta[f]indazol-5-yl]methyl}benzenesulfonamide]: the “GITAR > GRAMM % SEP” value worked out at 46.2% and the EC50 was determined as 959 nM. Further, the Emax under setting [1] turned out to be 61.3%. For the same compound, the Emax under setting [2] is above 5%.

Consider `C[C@]12Cc3cnn(-c4ccc(F)cc4)c3C=C1CC[C@@H]2CN(CC#N)S(=O)(=O)c1ccc(F)cc1F` [Example 51, N-(cyanomethyl)-2,4-difluoro-N-{[(4αR,5S)-1-(4-fluorophenyl)-4α-methyl-1,4,4α,5,6,7-hexahydrocyclopenta[f]indazol-5-yl]methyl}benzenesulfonamide], for which the “GITAR > GRAMM % SEP” value amounted to 3.5% and the EC50 amounted to 186 nM. Moreover, the Emax under setting [1] is 86.8%. Under setting [2], the Emax is above 5%.

Regarding `Cc1nn(C)c(Cl)c1S(=O)(=O)N(CC#N)C[C@H]1CCC2=Cc3c(cnn3-c3ccc(F)cc3)C[C@@]21C` [Example 52, 5-chloro-N-(cyanomethyl)-N-{[(4αR,5S)-1-(4-fluorophenyl)-4α-methyl-1,4,4α,5,6,7-hexahydrocyclopenta[f]indazol-5-yl]methyl}-1,3-dimethyl-1H-pyrazole-4-sulfonamide], the “GITAR > GRAMM % SEP” value was 22.5% and the EC50 was found to be 869 nM. In addition, the Emax under setting [1] stood at 54.4%. Besides, the Emax under setting [2] is above 5%.

In the case of `C[C@]12Cc3cnn(-c4ccc(F)cc4)c3C=C1CC[C@@H]2CN(CC#N)S(=O)(=O)c1ccccc1-c1ccccc1` [Example 53, N-(cyanomethyl)-N-{[(4αR,5S)-1-(4-fluorophenyl)-4α-methyl-1,4,4α,5,6,7-hexahydrocyclopenta[f]indazol-5-yl]methyl}biphenyl-2-sulfonamide], the “GITAR > GRAMM % SEP” value is 36.0% and the EC50 was found to be 832 nM. The Emax under setting [1] stood at 54%. The Emax under setting [2] was above 5%.

For `C[C@]12Cc3cnn(-c4ccc(F)cc4)c3C=C1CC[C@@H]2CN(CC#N)S(=O)(=O)c1ccccc1C(F)(F)F` [Example 54, N-(cyanomethyl)-N-{[(4αR,5S)-1-(4-fluorophenyl)-4α-methyl-1,4,4α,5,6,7-hexahydrocyclopenta[f]indazol-5-yl]methyl}-2-(trifluoromethyl)benzenesulfonamide], the “GITAR > GRAMM % SEP” value was 23.1% and the EC50 came out at 1100 nM. For the same compound, the Emax under setting [1] was 31.3%. Further, the Emax under setting [2] was above 5%.

As for `C[C@]12Cc3cnn(-c4ccc(F)cc4)c3C=C1CC[C@@H]2CN(CC#N)S(=O)(=O)c1ccccc1C#N` [Example 55], the “GITAR > GRAMM % SEP” value is listed as 35.7% and the EC50 was 337 nM. The Emax under setting [1] was found to be 83.4%. Besides, the Emax under setting [2] was above 5%.

In the case of `Cc1oncc1S(=O)(=O)N(CCO)C[C@H]1CCC2=Cc3c(cnn3-c3ccc(F)cc3)C[C@@]21C` [Example 56, N-{[(4αR,5S)-1-(4-fluorophenyl)-4α-methyl-1,4,4α,5,6,7-hexahydrocyclopenta[f]indazol-5-yl]methyl}-N-(2-hydroxyethyl)-5-methylisoxazole-4-sulfonamide], the “GITAR > GRAMM % SEP” value was 36.1% and the EC50 turned out to be 643 nM. Also, the Emax under setting [1] came to 86.9%. Moreover, the Emax under setting [2] was above 5%.

On to `C[C@]12Cc3cnn(-c4ccc(F)cc4)c3C=C1CC[C@@H]2CN(CCO)S(=O)(=O)c1cc(Cl)c(Cl)s1` [Example 58, 4,5-dichloro-N-{[(4αR,5S)-1-(4-fluorophenyl)-4α-methyl-1,4,4α,5,6,7-hexahydrocyclopenta[f]indazol-5-yl]methyl}-N-(2-hydroxyethyl)thiophene-2-sulfonamide], for which the “GITAR > GRAMM % SEP” value came out at 25.7% and the EC50 was found to be 737 nM. Under setting [1], the Emax is 28.8%. The Emax under setting [2] was above 5%.

On to `C[C@]12Cc3cnn(-c4ccc(F)cc4)c3C=C1CC[C@@H]2CN(CCO)S(=O)(=O)c1ccc(F)c(F)c1` [Example 59], for which the “GITAR > GRAMM % SEP” value worked out at 39.6% and the EC50 came out at 538 nM. For the same compound, the Emax under setting [1] stood at 80.9%. Besides, the Emax under setting [2] is above 5%.

For `C[C@]12Cc3cnn(-c4ccc(F)cc4)c3C=C1CC[C@@H]2CN(CCO)S(=O)(=O)c1ccc(C#N)cc1Cl` [Example 60, 2-chloro-4-cyano-N-{[(4αR,5S)-1-(4-fluorophenyl)-4α-methyl-1,4,4α,5,6,7-hexahydrocyclopenta[f]indazol-5-yl]methyl}-N-(2-hydroxyethyl)benezenesulfonamide], the “GITAR > GRAMM % SEP” value is on record as 29.0% and the EC50 is 813 nM. The Emax under setting [1] was determined as 52%. The Emax under setting [2] was above 5%.

Take `C[C@]12Cc3cnn(-c4ccc(F)cc4)c3C=C1CC[C@@H]2CN(CCO)S(=O)(=O)c1cccc(Cl)c1Cl` [Example 61, 2,3-dichloro-N-{[(4αR,5S)-1-(4-fluorophenyl)-4α-methyl-1,4,4α,5,6,7-hexahydrocyclopenta[f]indazol-5-yl]methyl}-N-(2-hydroxyethyl)benezenesulfonamide]: the “GITAR > GRAMM % SEP” value is on record as 25.5% and the EC50 amounted to 1550 nM. Under setting [1], the Emax was determined as 31.3%. Moreover, the Emax under setting [2] was above 5%.
